In patent publication US20140221361A1, “C-19 MODIFIED TRITERPENOIDS WITH HIV MATURATION INHIBITORY ACTIVITY” (priority 2013, published 2014):
pEC50: −log10 of the molar value.

test system: recombinant NL4-3 virus (Renilla luciferase in nef, Gag P373S); test: HIV cell culture assay (luciferase reporter, MT-2 cells); format: cell-based, HIV-1; conditions: Renilla, NL43, MT-2 cells infected for 4-5 days with NLRluc recombinants; luciferase activity; serial dilutions of inhibitor
Description: MT-2 cells and 293T cells were obtained from the NIH AIDS Research and Reference Reagent Program. MT-2 cells were propagated in RPMI 1640 media supplemented with 10% heat inactivated fetal bovine serum, […]. The 293T cells were propagated in DMEM media supplemented with 10% heat inactivated fetal bovine serum (FBS), 100 units/ml penicillin G and 100 µg/ml streptomycin. The proviral DNA clone of NL4-3 was obtained from the NIH AIDS Research and Reference Reagent Program. A recombinant NL4-3 virus, in which a section of the nef gene from NL4-3 was replaced with the Renilla luciferase gene, was used as a reference virus. In addition, residue Gag P373 was converted to P373S. Briefly, the recombinant virus was prepared by transfection of the altered proviral clone of NL4-3. Transfections were performed in 293T cells using LipofectAMINE PLUS from Invitrogen (Carlsbad, Calif.), according to manufacturer's instruction. The virus was titered in MT-2 cells using luciferase enzyme activity as a marker. Luciferase was quantitated using the Dual Luciferase kit from Promega (Madison, Wis.), with modifications to the manufacturer's protocol. The diluted Passive Lysis solution was pre-mixed with the re-suspended Luciferase Assay Reagent and the re-suspended Stop & Glo Substrate (2:1:1 ratio). Fifty (50) μL of the mixture was added to each aspirated well on assay plates and luciferase activity was measured immediately on a Wallac TriLux (Perkin-Elmer). Antiviral activities of inhibitors toward the recombinant virus were quantified by measuring luciferase activity in cells infected for 4-5 days with NLRluc recombinants in the presence serial dilutions of the inhibitor.

**Q.** With `C=C(CN(C)C)[C@@H]1CC[C@]2(C(=O)O)CC[C@]3(C)[C@H](CC[C@@H]4[C@@]5(C)CC=C(c6ccc(C(=O)O)cc6)C(C)(C)[C@@H]5CC[C@]43C)[C@@H]12` [Example 3, (1R,3aS,5aR,5bR,7aR,11aS,11bR,13aR,13bS)-9-(4-carboxyphenyl)-1-(3-(dimethylamino)prop-1-en-2-yl)-5a,5b,8,8,11a-pentamethyl-2,3,3a,4,5,5a,5b,6,7,7a,8,11,11a,11b,12,13,13a,13b-octadecahydro-1H-cyclopenta[a]chrysene-3a-carboxylic acid] as the compound, how does the pEC50 read?
**A.** Its pEC50 is 7.00.

**Q.** With `C=C(CN(C)CCN(C)C)[C@@H]1CC[C@]2(C(=O)O)CC[C@]3(C)[C@H](CC[C@@H]4[C@@]5(C)CC=C(c6ccc(C(=O)O)cc6)C(C)(C)[C@@H]5CC[C@]43C)[C@@H]12` [Example 4, (1R,3aS,5aR,5bR,7aR,11aS,11bR,13aR,13bS)-9-(4-carboxyphenyl)-1-(3-((2-(dimethylamino)ethyl)(methyl)amino)prop-1-en-2-yl)-5a,5b,8,8,11a-pentamethyl-2,3,3a,4,5,5a,5b,6,7,7a,8,11,11a,11b,12,13,13a,13b-octadecahydro-1H-cyclopenta[a]chrysene-3a-carboxylic acid] as the compound, how does the pEC50 read?
**A.** Its pEC50 is 8.85.

**Q.** How did the pEC50 turn out when `C=C(CNCCN(C)C)[C@@H]1CC[C@]2(C(=O)O)CC[C@]3(C)[C@H](CC[C@@H]4[C@@]5(C)CC=C(c6ccc(C(=O)O)cc6)C(C)(C)[C@@H]5CC[C@]43C)[C@@H]12` [Example 5, (1R,3aS,5aR,5bR,7aR,11aS,11bR,13aR,13bS)-9-(4-carboxyphenyl)-1-(3-(2-(dimethylamino)ethylamino)prop-1-en-2-yl)-5a,5b,8,8,11a-pentamethyl-2,3,3a,4,5,5a,5b,6,7,7a,8,11,11a,11b,12,13,13a,13b-octadecahydro-1H-cyclopenta[a]chrysene-3a-carboxylic acid] was run?
**A.** The pEC50 was 6.80.

**Q.** With `C=C(CNCCC(=O)O)[C@@H]1CC[C@]2(C(=O)O)CC[C@]3(C)[C@H](CC[C@@H]4[C@@]5(C)CC=C(c6ccc(C(=O)O)cc6)C(C)(C)[C@@H]5CC[C@]43C)[C@@H]12` [Example 6, (1R,3aS,5aR,5bR,7aR,11aS,11bR,13aR,13bS)-1-(3-(2-carboxyethylamino)prop-1-en-2-yl)-9-(4-carboxyphenyl)-5a,5b,8,8,11a-pentamethyl-2,3,3a,4,5,5a,5b,6,7,7a,8,11,11a,11b,12,13,13a,13b-octadecahydro-1H-cyclopenta[a]chrysene-3a-carboxylic acid] as the compound, how does the pEC50 read?
**A.** The pEC50 was 5.40.

**Q.** With `C=C(CN(C)C)[C@@H]1CC[C@]2(C(=O)NCCN(C)C)CC[C@]3(C)[C@H](CC[C@@H]4[C@@]5(C)CC=C(c6ccc(C(=O)O)cc6)C(C)(C)[C@@H]5CC[C@]43C)[C@@H]12` [Example 7, 4-((1R,3aS,5aR,5bR,7aR,11aS,11bR,13aR,13bS)-3a-(2-(dimethylamino)ethylcarbamoyl)-1-(3-(dimethylamino)prop-1-en-2-yl)-5a,5b,8,8,11a-pentamethyl-2,3,3a,4,5,5a,5b,6,7,7a,8,11,11a,11b,12,13,13a,13b-octadecahydro-1H-cyclopenta[a]chrysen-9-yl)benzoic acid] as the compound, how does the pEC50 read?
**A.** Its pEC50 is 9.27.

**Q.** `C=C(CN(C)CCN(C)C)[C@@H]1CC[C@]2(C(=O)NCCN(C)C)CC[C@]3(C)[C@H](CC[C@@H]4[C@@]5(C)CC=C(c6ccc(C(=O)O)cc6)C(C)(C)[C@@H]5CC[C@]43C)[C@@H]12` [Example 8, 4-((1R,3aS,5aR,5bR,7aR,11aS,11bR,13aR,13bS)-1-(3-((2-(dimethylamino)ethyl)(methyl)amino)prop-1-en-2-yl)-3a-(2-(dimethylamino)ethylcarbamoyl)-5a,5b,8,8,11a-pentamethyl-2,3,3a,4,5,5a,5b,6,7,7a,8,11,11a,11b,12,13,13a,13b-octadecahydro-1H-cyclopenta[a]chrysen-9-yl)benzoic acid] was tested. Which pEC50 did it give?
**A.** Its pEC50 is 8.83.

**Q.** How did the pEC50 turn out when `C=C(CNCCN(C)C)[C@@H]1CC[C@]2(C(=O)NCCC(=O)O)CC[C@]3(C)[C@H](CC[C@@H]4[C@@]5(C)CC=C(c6ccc(C(=O)O)cc6)C(C)(C)[C@@H]5CC[C@]43C)[C@@H]12` [Example 9, 4-((1R,3aS,5aR,5bR,7aR,11aS,11bR,13aR,13bS)-3a-(2-carboxyethylcarbamoyl)-1-(3-(2-(dimethylamino)ethylamino)prop-1-en-2-yl)-5a,5b,8,8,11a-pentamethyl-2,3,3a,4,5,5a,5b,6,7,7a,8,11,11a,11b,12,13,13a,13b-octadecahydro-1H-cyclopenta[a]chrysen-9-yl)benzoic acid] was run?
**A.** The pEC50 was 7.05.

**Q.** `C=C(CN(C)C(=O)CCC(=O)O)[C@@H]1CC[C@]2(C(=O)NCCC(=O)O)CC[C@]3(C)[C@H](CC[C@@H]4[C@@]5(C)CC=C(c6ccc(C(=O)O)cc6)C(C)(C)[C@@H]5CC[C@]43C)[C@@H]12` [Example 10, 4-((1R,3aS,5aR,5bR,7aR,11aS,11bR,13aR,13bS)-1-(3-(3-carboxy-N-methylpropanamido)prop-1-en-2-yl)-3a-(2-carboxyethylcarbamoyl)-5a,5b,8,8,11a-pentamethyl-2,3,3a,4,5,5a,5b,6,7,7a,8,11,11a,11b,12,13,13a,13b-octadecahydro-1H-cyclopenta[a]chrysen-9-yl)benzoic acid] was tested. Which pEC50 did it give?
**A.** Its pEC50 is 5.70.

**Q.** `C=C(COCCN1CCOCC1)[C@@H]1CC[C@]2(C(=O)O)CC[C@]3(C)[C@H](CC[C@@H]4[C@@]5(C)CC=C(c6ccc(C(=O)O)cc6)C(C)(C)[C@@H]5CC[C@]43C)[C@@H]12` [Example 11, (1R,3aS,5aR,5bR,7aR,11aS,11bR,13aR,13bS)-9-(4-carboxyphenyl)-5a,5b,8,8,11a-pentamethyl-1-(3-(2-morpholinoethoxy)prop-1-en-2-yl)-2,3,3a,4,5,5a,5b,6,7,7a,8,11,11a,11b,12,13,13a,13b-octadecahydro-1H-cyclopenta[a]chrysene-3a-carboxylic acid] was tested. Which pEC50 did it give?
**A.** Its pEC50 is 7.70.

**Q.** `C=C(COCCN1CCOCC1)[C@@H]1CC[C@]2(C(=O)NCCC(=O)O)CC[C@]3(C)[C@H](CC[C@@H]4[C@@]5(C)CC=C(c6ccc(C(=O)O)cc6)C(C)(C)[C@@H]5CC[C@]43C)[C@@H]12` [Example 12, 4-((1R,3aS,5aR,5bR,7aR,11aS,11bR,13aR,13bS)-3a-(2-carboxyethylcarbamoyl)-5a,5b,8,8,11a-pentamethyl-1-(3-(2-morpholinoethoxy)prop-1-en-2-yl)-2,3,3a,4,5,5a,5b,6,7,7a,8,11,11a,11b,12,13,13a,13b-octadecahydro-1H-cyclopenta[a]chrysen-9-yl)benzoic acid] was tested. Which pEC50 did it give?
**A.** Its pEC50 is 6.85.

**Q.** `C=C(COCCN1CCOCC1)[C@@H]1CC[C@]2(C(=O)NCCNCCO)CC[C@]3(C)[C@H](CC[C@@H]4[C@@]5(C)CC=C(c6ccc(C(=O)O)cc6)C(C)(C)[C@@H]5CC[C@]43C)[C@@H]12` [Example 13, 4-((1R,3aS,5aR,5bR,7aR,11aS,11bR,13aR,13bS)-3a-(2-(2-hydroxyethylamino)ethylcarbamoyl)-5a,5b,8,8,11a-pentamethyl-1-(3-(2-morpholinoethoxy)prop-1-en-2-yl)-2,3,3a,4,5,5a,5b,6,7,7a,8,11,11a,11b,12,13,13a,13b-octadecahydro-1H-cyclopenta[a]chrysen-9-yl)benzoic acid] was tested. Which pEC50 did it give?
**A.** The pEC50 was 8.71.

**Q.** How did the pEC50 turn out when `C=C(COCCN1CCOCC1)[C@@H]1CC[C@]2(C(=O)NCCN(C)C)CC[C@]3(C)[C@H](CC[C@@H]4[C@@]5(C)CC=C(c6ccc(C(=O)O)cc6)C(C)(C)[C@@H]5CC[C@]43C)[C@@H]12` [Example 14, 4-((1R,3aS,5aR,5bR,7aR,11aS,11bR,13aR,13bS)-3a-(2-(dimethylamino)ethylcarbamoyl)-5a,5b,8,8,11a-pentamethyl-1-(3-(2-morpholinoethoxy)prop-1-en-2-yl)-2,3,3a,4,5,5a,5b,6,7,7a,8,11,11a,11b,12,13,13a,13b-octadecahydro-1H-cyclopenta[a]chrysen-9-yl)benzoic acid] was run?
**A.** Its pEC50 is 9.14.

**Q.** `C=C(COCCN1CCOCC1)[C@@H]1CC[C@]2(C(=O)NCCCN3CCCC3=O)CC[C@]3(C)[C@H](CC[C@@H]4[C@@]5(C)CC=C(c6ccc(C(=O)O)cc6)C(C)(C)[C@@H]5CC[C@]43C)[C@@H]12` [Example 15, 4-((1R,3aS,5aR,5bR,7aR,11aS,11bR,13aR,13bS)-5a,5b,8,8,11a-pentamethyl-1-(3-(2-morpholinoethoxy)prop-1-en-2-yl)-3a-(3-(2-oxopyrrolidin-1-yl)propylcarbamoyl)-2,3,3a,4,5,5a,5b,6,7,7a,8,11,11a,11b,12,13,13a,13b-octadecahydro-1H-cyclopenta[a]chrysen-9-yl)benzoic acid] was tested. Which pEC50 did it give?
**A.** The pEC50 was 8.74.

**Q.** With `C=C(COCCN1CCOCC1)[C@@H]1CC[C@]2(C(=O)NCCCn3ccnc3)CC[C@]3(C)[C@H](CC[C@@H]4[C@@]5(C)CC=C(c6ccc(C(=O)O)cc6)C(C)(C)[C@@H]5CC[C@]43C)[C@@H]12` [Example 16, 4-((1R,3aS,5aR,5bR,7aR,11aS,11bR,13aR,13bS)-3a-(3-(1H-imidazol-1-yl)propylcarbamoyl)-5a,5b,8,8,11a-pentamethyl-1-(3-(2-morpholinoethoxy)prop-1-en-2-yl)-2,3,3a,4,5,5a,5b,6,7,7a,8,11,11a,11b,12,13,13a,13b-octadecahydro-1H-cyclopenta[a]chrysen-9-yl)benzoic acid] as the compound, how does the pEC50 read?
**A.** Its pEC50 is 8.61.
